Legend:
[1] = test system: 22Rv1 cells; assay: Immunoblotting of PDZD2 in cell lysates and sPDZD2 in conditioned media with anti-PDZD2 antibody; assay type: cell-based, human; settings: 10 μM Z-DEVD-FMK, 48 hours, compared to Z-FA-FMK-treated cells
From the text: (§1) Given that cleavage of pro-IL-16 to form the corresponding secretory IL-16 cytokine is mediated by caspase-3, we tested whether or not proteolytic cleavage of full-length PDZD2 to its secreted protein sPDZD2 is caspase-3-dependent in human prostate, breast and liver cancer cells. Human prostate cancer cell lines LNCaP.FGC (CRL-1740), DUI45 (HTB-81), PC-3 (CRL-1435), and 22Rv1 (CRL-2505), breast adenocarcinoma cell line MCF-7 (HTB-22), and hepatocellular carcinoma cell line Hep-G2 (HB-8065) were obtained from American Type Culture Collection. […] Cell lysates in sample buffer (0.2% SDS, 10% glycerol, 0.06 M Tris-HCl (pH 6.8), 100 mM DTT, and 0.01% bromophenol blue) were heated at 95° C. for 5 min. Proteins in the conditioned media were concentrated by 50-fold using YM-10 Centricons (Millipore). Samples (10 μg) were resolved by SDS-PAGE and electroblotted to PVDF membranes (Millipore). The blots were blocked with 5% non-fat milk powder in TBS-T for 1 hour at room temperature and then incubated with rabbit anti-PDZD2 antibody (1: 10,000 dilution) overnight at 4° C. After washing with TBS-T, the blots were incubated with secondary antibodies against rabbit immunoglobulin G (ZYMED Laboratories). Blots were stripped in 25 mM glycine buffer (pH 2.0) for 30 min for re-probing with α-tubulin (1:500 dilution, Santa Cruz Biotechnology). The signals were visualized by enhanced chemiluminescence Western blotting system (Amersham Biosciences) and densitometric scannings of films of the developed blot normalized against α-tubulin were determined.

[2] = test system: PC-3 cells; assay: as above; assay type: cell-based, human; settings: 10 μM Z-DEVD-FMK, 48 hours, compared to Z-FA-FMK-treated cells
From the text: as §1

[3] = test system: DU145 cells; assay: as above; assay type: cell-based, human; settings: 10 μM Z-DEVD-FMK, 48 hours, compared to Z-FA-FMK-treated cells
From the text: as §1

[4] = test system: Hep-G2 cells; assay: as above; assay type: cell-based, human; settings: 10 μM Z-DEVD-FMK, 48 hours, compared to Z-FA-FMK-treated cells
From the text: as §1

[5] = test system: MCF-7 cells; assay: as above; assay type: cell-based, human; settings: 10 μM Z-DEVD-FMK, 48 hours, compared to Z-FA-FMK-treated cells
From the text: as §1

[6] = target: T1, PDZ domain-containing protein 2 (PDZD2), full-length, human (human) (UniProt O15018); assay: cell-based or functional assay
T1 sequence: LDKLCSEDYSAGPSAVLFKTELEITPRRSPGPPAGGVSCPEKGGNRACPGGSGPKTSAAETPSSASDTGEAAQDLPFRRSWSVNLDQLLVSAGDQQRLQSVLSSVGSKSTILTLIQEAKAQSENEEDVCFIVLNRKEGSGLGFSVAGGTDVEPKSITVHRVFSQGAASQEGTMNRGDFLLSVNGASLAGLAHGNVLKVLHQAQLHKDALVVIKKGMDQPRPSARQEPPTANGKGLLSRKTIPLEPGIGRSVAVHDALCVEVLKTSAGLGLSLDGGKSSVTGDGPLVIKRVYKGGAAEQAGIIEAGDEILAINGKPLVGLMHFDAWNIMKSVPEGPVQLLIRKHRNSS

Row | Molecule | increase of PDZD2 expression [1] [fold] | reduction of sPDZD2 secretion into conditioned media ([1]; serum-free) [%] | increase of PDZD2 expression [2] [fold] | reduction of sPDZD2 secretion into conditioned media ([2]; serum-free) [%] | increase of PDZD2 expression [3] [fold] | reduction of sPDZD2 secretion into conditioned media ([3]; serum-free) [%] | increase of PDZD2 expression [4] [fold] | reduction of sPDZD2 secretion into conditioned media ([4]; serum-free) [%] | increase of PDZD2 expression [5] [fold] | reduction of sPDZD2 secretion into conditioned media ([5]; serum-free) [%] | increase of full-length PDZD2 in cell lysate, 22Rv1 cells, 10 µM Z-DEVD-FMK 48 h vs Z-FA-FMK [6] [fold] | increase of full-length PDZD2 in cell lysate, DU145 cells, 10 µM Z-DEVD-FMK 48 h vs Z-FA-FMK [6] [fold] | increase of full-length PDZD2 in cell lysate, Hep-G2 cells, 10 µM Z-DEVD-FMK 48 h vs Z-FA-FMK [6] [fold] | increase of full-length PDZD2 in cell lysate, MCF-7 cells, 10 µM Z-DEVD-FMK 48 h vs Z-FA-FMK [6] [fold] | increase of full-length PDZD2 in cell lysate, PC-3 cells, 10 µM Z-DEVD-FMK 48 h vs Z-FA-FMK [6] [fold] | reduction of sPDZD2 secretion into conditioned medium, 22Rv1 cells, 10 µM Z-DEVD-FMK 48 h vs Z-FA-FMK [6] [%] | reduction of sPDZD2 secretion into conditioned medium, DU145 cells, 10 µM Z-DEVD-FMK 48 h vs Z-FA-FMK [6] [%] | reduction of sPDZD2 secretion into conditioned medium, Hep-G2 cells, 10 µM Z-DEVD-FMK 48 h vs Z-FA-FMK [6] [%] | reduction of sPDZD2 secretion into conditioned medium, MCF-7 cells, 10 µM Z-DEVD-FMK 48 h vs Z-FA-FMK [6] [%] | reduction of sPDZD2 secretion into conditioned medium, PC-3 cells, 10 µM Z-DEVD-FMK 48 h vs Z-FA-FMK [6] [%]
1 | Z-DEVD-FMK | 4.4 | 44 | 2 | 28 | 3 | 40 | 4.1 | 52 | 3.5 | 57 | – | – | – | – | – | – | – | – | – | –
2 | caspase-3 (enzyme, human, UniProt P42574 29-277, looked up) SGISLDNSYKMDYPEMGLCIIINNKNFHKSTGMTSRSGTDVDAANLRETFRNLKYEVRNKNDLTREEIVELMRDVSKEDHSKRSSFVCVLLSHGEEGIIFGTNGPVDLKKITNFFRGDRCRSLTGKPKLFIIQACRGTELDCGIETDSGVDDDMACHKIPVEADFLYAYSTAPGYYSWRNSKDGSWFIQSLCAMLKQYADKLEFMHILTRVNRKVATEFESFSFDATFHAKKQIPCIVSMLTKELYFYH | – | – | – | – | – | – | – | – | – | – | 4.4 | 3 | 4.1 | 3.5 | 2 | 44 | 40 | 52 | 57 | 28

Source: US20090062189A1, “TUMOR SUPPRESSOR PROTEIN AND NUCLEOTIDE ENCODING SAME” (priority 2006, published 2009)
